Experimental data taken from paper PMC7823780 (Viruses, 2021).
Entries after “also recorded” stand apart in the source; their conditions may differ.

Assays:
Echo9 = test: Plaque reduction assay Echo9; type: cell-based, human enterovirus B; settings: Enterovirus B; 50% reduction of plaque number, LLC-MK2 cells
CV-B3 = test: Plaque reduction assay CV-B3; type: cell-based, human enterovirus B; settings: Enterovirus B, CVB3; 50% reduction of plaque number; read-out: EC50 CV-B3
EV-A71 [1] = test: Virucidal activity assay; type: cell-based, human enterovirus A71 strain BrCr; settings: 20 µM, 4 or 37 °C, 1 h
EV-A71 [2] = test: Protective effect on EV-A71-infected Vero-76 monolayers (cell morphology); type: cell-based
CV-B4 = test: Plaque reduction assay CV-B4; type: cell-based, human enterovirus B; settings: Enterovirus B, CVB4; 50% reduction of plaque number; read-out: EC50 CV-B4
EV-A71 [3] = test: Inhibition of EV-A71-induced cytopathogenicity in Vero-76 cells (MTT); type: cell-based, human enterovirus A71 strain BrCr
EV-A71 [4] = test: Yield reduction assay; type: cell-based, human enterovirus A71 strain BrCr; settings: Vero-76, m.o.i. 0.1, 100, 20, 4 and 0.8 µM, 96 h
EV-A71 [5] = test: Apoptosis assay, Annexin V/PI flow cytometry, EV-A71-infected Vero-76; type: cell-based, human enterovirus A71 strain BrCr; settings: 96 h, m.o.i. 0.1
CV-B5 = test: Plaque reduction assay CV-B5; type: cell-based, human enterovirus B; settings: Enterovirus B, CVB5; 50% reduction of plaque number; read-out: EC50 CV-B5
EV-A71 [6] = test: Cell pretreatment assay; type: cell-based, human enterovirus A71 strain BrCr; settings: Vero-76 pre-incubated 2 h with 20 µM, then infected
PV-1 = test: microbe, parasite or virus in culture; type: cell-based; settings: Enterovirus C, read-out: EC50 PV-1
[7] = Cytotoxicity assay, MTT, mock-infected HeLa; type: cell-based; settings: human, mock-infected HeLa cells
[8] = Cytotoxicity assay, MTT, mock-infected BHK-21; type: cell-based; settings: Syrian hamster, mock-infected BHK-21 cells; mock-infected BHK-21, MTT
EV-D68 = test: Inhibition of EV-D68-induced cytopathogenicity in HeLa cells (MTT); type: cell-based, human enterovirus D 68 strain Fermon; settings: Enterovirus D, EVD68, m.o.i. 0.01
[9] = Cytotoxicity assay, MTT, mock-infected Vero-76; type: cell-based; settings: Cercopithecus aethiops, mock-infected Vero-76 cells; mock-infected Vero-76, MTT; value printed without *
[10] = Cytotoxicity assay, mock-infected LLC-MK2; type: cell-based; settings: Macaca mulatta, mock-infected LLC-MK2 cells, mock-infected LLC-MK2, MTT
Caco-2 cells = test: Cell monolayer permeabilization (TEER); type: cell-based, human; settings: Caco-2 monolayers, 20 µM, all time points up to 48 h
EV-A71 [11] = test: Time-of-addition assay; type: cell-based, human enterovirus A71 strain BrCr; settings: Vero-76, m.o.i. 1, 20 µM
EV-A71 [12] = test: Adsorption assay; type: cell-based, human enterovirus A71 strain BrCr; settings: Vero-76, m.o.i. 1, 20 µM, 2 h at 4 °C
[13] = Cytotoxicity assay, MTT, mock-infected MDBK; type: cell-based; settings: bovine, mock-infected MDBK cells
EV-A71 [14] = test: Penetration assay; type: cell-based, human enterovirus A71 strain BrCr; settings: Enterovirus A, EVA71, 1 h; Vero-76, 100–0.8 µM, 60 min at 37 °C; read-out: EC50 of inhibition of viral penetration

CC(C)(C)c1ccc(-c2nc3cc(Cl)ccc3[nH]2)cc1 [Compound 2b, 2-(4-(Tert-Butyl)phenyl)-5-Chloro-1H-Benzo[d]imidazole]
EC50 (Echo9): 4 µM
EC50 (CV-B3): 33 µM
virucidal effect on EV-A71 infectivity (EV-A71 [1]): failed to affect the EV-A71 infectivity
protection of Vero-76 monolayer from EV-A71 infection (morphology) (EV-A71 [2]; 20 µM and 80 µM, m.o.i. 0.1): protect cells from EV-A71 infection
cytotoxic effect on Vero-76 monolayer (morphology) (EV-A71 [2]; up to a concentration of 80 µM): no evident cytotoxic effects
EC50 (CV-B4): 25.5 µM
EC50 (EV-A71 [3]; 50% protection of Vero-76 cells from EV-A71-induced cytopathogenicity, MTT, m.o.i. 0.01): 3.5 µM
selectivity index (EV-A71 [3]; EV-A71, Vero-76): > 30
reduction in EV-A71 titer (yield reduction) (EV-A71 [4]): dose-dependent reduction
viability at 20 µM (EV-A71 [5]; Enterovirus A, EVA71, Vero-76, 20 µM, read-out: viability of EV-A71-infected cells): 90%
viability at 80 µM (EV-A71 [5]; Enterovirus A, EVA71, Vero-76, 80 µM, read-out: viability of EV-A71-infected cells): 80%
necrotic cells among EV-A71-infected cells (EV-A71 [5]; Vero-76, 20 µM): 10%
necrotic cells among EV-A71-infected cells (EV-A71 [5]; Vero-76, 80 µM): 20%
EC50 (CV-B5): 10 µM
inhibition after cell pre-incubation (EV-A71 [6]): no inhibition
EC50 (PV-1): 6 µM
CC50 at 4 days [7]: 100 µM
CC50 [8]: > 100 µM
EC50 (EV-D68): > 100 µM
CC50 [9]: > 100 µM
CC50 at 5 days [10]: 12 µM
TEER values versus control (Caco-2 cells): not significantly different from control values; also recorded: did not induce any significant change in permeability
effect by time of addition (EV-A71 [11]): greatest effect when added along with the virus
virus titer in adsorption assay (EV-A71 [12]): detectable reduction in the virus titer
CC50 [13]: > 100 µM
EC50 (EV-A71 [14]): 6.2 µM
